Reference: patent US20080207695A1, “Thrombin Inhibiting 2-Oxo-1,2,5,6-Tetrahydropyridine Derivatives” (ASTRAZENECA AB, priority 2005, published 2008)

Assays:
[1] = Test F: in vitro (liver microsome) stability, rat liver microsomes; assay type: in vitro ADME, Sprague-Dawley rats; settings: liver microsomes from rats, NADPH, 37° C.
Experimental: (§1) Determination of In Vitro (Liver Microsome) Stability
(§2) Liver microsomes are prepared from Sprague-Dawley rats and human liver samples according to internal SOPs. The compounds are incubated at 37° C. at a total microsome protein concentration of 0.5 mg/mL in a 0.1 mol/L potassium phosphate buffer at pH 7.4, in the presence of the cofactor, NADPH (1.0 mmol/L). The initial concentration of compound is 1.0 μmol/L. Samples are taken for analysis at 5 time points, 0, 7, 15, 20 and 30 minutes after the start of the incubation. The enzymatic activity in the collected sample is immediately stopped by adding an equal volume of acetonitrile containing 0.8% formic acid. The concentration of compound remaining in each of the collected samples is determined by means of LC-MS/MS. The elimination rate constant (k) of the thrombin inhibitor is calculated as the slope of the plot of ln[Thrombin inhibitor] against incubation time (minutes). The elimination rate constant is then used to calculate the half-life (T1/2) of the thrombin inhibitor, which is subsequently used to calculate the intrinsic clearance (CLint) of the thrombin inhibitor in liver microsomes as: […]

[2] = Test F: in vitro (liver microsome) stability, human liver microsomes; assay type: in vitro ADME; settings: liver microsomes from humans, NADPH, 37° C.
Experimental: as §1, §2

Compound | conversion to the corresponding active inhibitor (title compound of Example 1) [1] | conversion to the corresponding active inhibitor (title compound of Example 1) [2]
CC1=C(CC(=O)NCc2c(C)cc(N)nc2COC(=O)c2ccccc2)C(=O)N(NCC(F)(F)c2ccccn2)CC1 [Example 3, (6-Amino-3-{[({1-[(2,2-difluoro-2-pyridin-2-ylethyl)amino]-4-methyl-2-oxo-1,2,5,6-tetrahydropyridin-3-yl}acetyl)amino]methyl}-4-methylpyridin-2-yl)-methyl benzoate] | converted to the corresponding active inhibitor | converted to the corresponding active inhibitor
CC(=O)OCc1nc(N)cc(C)c1CNC(=O)CC1=C(C)CCN(NCC(F)(F)c2ccccn2)C1=O [Example 2, (6-Amino-3-{[({1-[(2,2-difluoro-2-pyridin-2-ylethyl)amino]-4-methyl-2-oxo-1,2,5,6-tetrahydropyridin-3-yl}acetyl)amino]methyl}-4-methylpyridin-2-yl)-methyl acetate] | converted to the corresponding active inhibitor | converted to the corresponding active inhibitor
